The results in this text go back to PMC10649927, “Integration of Deep Learning and Sequential Metabolism to Rapidly Screen Dipeptidyl Peptidase (DPP)-IV Inhibitors from Gardenia jasminoides Ellis” (Molecules, 2023).

In this test the target is T1, human recombinant DPP-IV (Homo sapiens, UniProt P27487).
T1 construct: gene DPP4; commercial recombinant human enzyme from ProSpec (Rehovot, Israel)
T1 sequence (P27487 29-766 limits assumed): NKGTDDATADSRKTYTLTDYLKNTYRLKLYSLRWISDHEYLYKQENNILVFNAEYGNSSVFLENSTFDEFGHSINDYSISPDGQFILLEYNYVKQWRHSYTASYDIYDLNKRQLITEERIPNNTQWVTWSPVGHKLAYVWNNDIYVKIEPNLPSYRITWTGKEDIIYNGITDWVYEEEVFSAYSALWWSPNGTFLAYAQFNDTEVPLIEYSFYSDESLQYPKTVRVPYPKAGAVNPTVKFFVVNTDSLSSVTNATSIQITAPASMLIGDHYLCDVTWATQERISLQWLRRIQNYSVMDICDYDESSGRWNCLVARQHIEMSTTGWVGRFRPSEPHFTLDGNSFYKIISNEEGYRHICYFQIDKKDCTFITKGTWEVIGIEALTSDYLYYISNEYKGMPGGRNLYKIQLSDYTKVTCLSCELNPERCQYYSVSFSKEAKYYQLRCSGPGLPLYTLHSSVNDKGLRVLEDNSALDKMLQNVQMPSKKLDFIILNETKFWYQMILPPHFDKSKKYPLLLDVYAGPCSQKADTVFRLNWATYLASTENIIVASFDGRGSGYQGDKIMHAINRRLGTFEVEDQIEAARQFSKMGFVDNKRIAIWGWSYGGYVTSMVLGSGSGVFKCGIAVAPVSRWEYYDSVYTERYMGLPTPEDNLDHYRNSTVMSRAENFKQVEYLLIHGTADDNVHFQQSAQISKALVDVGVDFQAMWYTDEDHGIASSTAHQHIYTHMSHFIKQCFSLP
In words: Gly-Pro-pNA hydrolysis, absorbance at […] nm. The following applies: Gly-Pro-pNA substrate (20 µL of 1.75 mM), 0.1 M Tris-HCl, 0.1 M NaCl, 1 mM EDTA, pH 8.0, 37 °C, 30 min. Type of test: biochemical.
For `O=C(O)C1=CO[C@@H](O[C@@H]2O[C@H](CO)[C@@H](O)[C@H](O)[C@H]2O)[C@@H]2C(CO)=CC[C@H]12` [compound 4, geniposidic acid], the “% inhibition at 1 mM” value is recorded as “the six GJE compounds inhibited the activity of DPP-IV”.

Consider `C[C@]1(O)C[C@@H](O)[C@@H]2C(C(=O)O)=CO[C@@H](O[C@@H]3O[C@H](CO)[C@@H](O)[C@H](O)[C@H]3O)[C@@H]21` [compound 6, shanzhiside], for which the “% inhibition at 1 mM” value is reported as “the six GJE compounds inhibited the activity of DPP-IV”.

In the case of `O=C(O)C1=CO[C@@H](O[C@@H]2O[C@H](CO)[C@@H](O)[C@H](O)[C@H]2O)[C@@H]2C(CO)=C[C@@H](O)[C@H]12` [compound 3, scandoside], the “% inhibition at 1 mM” value is “the six GJE compounds inhibited the activity of DPP-IV”.

`COC(=O)C1=CO[C@@H](O[C@@H]2O[C@H](CO)[C@@H](O)[C@H](O)[C@H]2O)[C@H]2[C@@H]1[C@H](O)C[C@]2(C)O` [compound 5, shanzhiside methyl ester]: the “% inhibition at 1 mM” value was “the six GJE compounds inhibited the activity of DPP-IV”.
